From publication PMC3759162 (Cellular and molecular life sciences : CMLS, 2012)

Tests used:
[1] = target: T1, NSBP-1 (D2096.8; nematode sterol-binding protein 1) (Caenorhabditis elegans, UniProt Q19007); test: competition with […] [3H]cholesterol on GST fusion protein
T1 sequence (Q19007 1-316): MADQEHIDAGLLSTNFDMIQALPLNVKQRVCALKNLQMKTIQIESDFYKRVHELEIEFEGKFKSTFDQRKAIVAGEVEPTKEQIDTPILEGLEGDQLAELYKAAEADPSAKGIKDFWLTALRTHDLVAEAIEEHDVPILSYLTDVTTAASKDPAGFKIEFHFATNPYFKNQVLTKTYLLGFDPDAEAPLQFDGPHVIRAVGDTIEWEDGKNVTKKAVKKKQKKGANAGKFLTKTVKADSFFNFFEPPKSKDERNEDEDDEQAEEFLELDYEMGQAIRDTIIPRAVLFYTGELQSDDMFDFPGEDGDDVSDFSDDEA

[2] = target: T1, NSBP-1 (D2096.8; nematode sterol-binding protein 1)

Row | Structure (SMILES) | IC50 [1] [nM] | Kd [2] [nM]
1 | C[C@H](CCCC(C)(C)O)[C@H]1CC[C@H]2[C@@H]3CC=C4C[C@@H](O)CC[C@]4(C)[C@H]3CC[C@]12C [25-hydroxycholesterol] | ~630 | –
2 | CC(C)CCC[C@@H](C)[C@H]1CC[C@H]2[C@@H]3CC=C4C[C@@H](O)CC[C@]4(C)[C@H]3CC[C@]12C [cholesterol] | 40 ± 5.6 | 87.5 ± 27.7
